In patent publication US9932354B2, “Imidazo-oxadiazole and imidazo-thiadiazole derivatives” (Ares Trading S.A., priority 2012, dated 2018) one finds Abtot/Ab42 selectivity ranges and IC50 data, which are given here for 21 molecules.

Assay [1] concerns Amyloid-β peptide release (AβTotal), HEK cells overexpressing APP (HEK-APP). Description: Amyloid-β peptide release (AβTotal) assay, AlphaLISA on supernatant of HEK-APP cells. Type of assay: cell-based. The following applies: ratio Abtot vs Ab42, HEK-APP cells, 24 h. As for the experimental part:
(§1) Amyloid-β Peptide Release (Aβ42 & AβTotal) Assay to Determine IC50 Values.
(§2) Compounds are dissolved in and diluted in 100% DMSO and incubated with HEK-APP cells for 24 h at 37° C. in 5% CO2. The supernatant from HEK-APP cells are mixed with antibodies: for Aβ42 detection: AlphaLISA Amyloid-β 1-42 Kit (Perkin Elmer AL203L) Anti-Amyloid β1-42-specific antibody acceptor beads, biotinylated anti-Amyloid-“β1-42” antibody and streptavidin (SA) donor beads diluted in AlphaLISA buffer (to the instructions of the supplier). For Aβ total detection: Custom Anti-Amyloid-βtotal acceptor beads (6E10 acceptor beads), biotinylated anti-Amyloid “β1-42” antibody (Perkin Elmer AL203L) and streptavidin (SA) donor beads diluted in AlphaLISA buffer (to the instructions of the supplier). After addition of supernatant to the antibody mix, the assay is incubated for 4.5 h. Amyloid-β peptide release (Aβ42 & AβTotal) is measured with a Pherastar FS (BMG) multimode reader using the alphascreen module.
In general terms: In Alpha technology, singlet oxygen from a donor bead excites a nearby acceptor bead.

Assay [2] has as its system Amyloid-β peptide release (Aβ42), HEK cells overexpressing APP (HEK-APP). As to the kind of experiment: Amyloid-β peptide release (Aβ42) assay, AlphaLISA on supernatant of HEK-APP cells. Type of assay: cell-based. The note with it: Homo sapiens, HEK293, 24 h incubation with compound, read-out: Ab42 IC50 Ranges. As for the experimental part: as §1, §2

For the molecule `Cc1ncc2oc(-c3ccc(NC(=O)Cc4cccc5ccccc45)cc3)nn12` [Example 71, N-(4-(5-methylimidazo[5,1-b][1,3,4]oxadiazol-2-yl)phenyl)-2-(naphthalen-1-yl)acetamide], in assay [1], the Abtot/Ab42 selectivity ranges result is “b (b: 100 fold > selectivity ≥ 50 fold)”. In assay [2], the IC50 was in the range of 500 to 1000 nM.
As to `CCOc1ccc(CC(=O)Nc2ccc(-c3nn4c(C)ncc4o3)c(OC)c2)cc1` [Example 35, 2-(4-ethoxyphenyl)-N-(3-methoxy-4-(5-methylimidazo [5,1-b][1,3,4]oxadiazol-2-yl)phenyl)acetamide], the Abtot/Ab42 selectivity ranges result in assay [1] is given as “b (b: 100 fold > selectivity ≥ 50 fold)”. Further, in assay [2], the IC50 lay within 500 to 1000 nM.
With `Cc1ncc2sc(C(=O)NCc3ccc(Oc4ccc(F)cc4)cc3)nn12` [Example 106, 5-Methyl-imidazo[5,1-b][1,3,4]thiadiazole-2-carboxylic acid 4-(4-fluoro-phenoxy)-benzylamide], the Abtot/Ab42 selectivity ranges entry in assay [1] is “b (b: 100 fold > selectivity ≥ 50 fold)”. Also, the IC50 in assay [2] was in the range of 100 to 500 nM.
Take `Cc1ncc2oc(-c3ccc(NC(=O)Cc4ccccc4C(F)(F)F)cn3)nn12` [Example 83, N-[6-(5-Methyl-imidazo[5,1-b][1,2,4]oxadiazol-2-yl)-pyridin-3-yl]-2-(2-trifluoromethyl-phenyl)-acetamide]: the Abtot/Ab42 selectivity ranges result in assay [1] is given as “c (c: 50 fold > selectivity ≥ 10 fold)”. For the same molecule, the IC50 in assay [2] was 1000 to 2200 nM.
The corresponding values for `Cc1ncc2oc(-c3ccc(NC(=O)Nc4ccc(OC(F)(F)F)cc4)cc3)nn12` [Example 59, 1-[4-(5-Methyl-imidazo[5,1-b][1,2,4]oxadiazol-2-yl)-phenyl]-3-(4-trifluoromethoxy-phenyl)-urea] are “c (c: 50 fold > selectivity ≥ 10 fold)” and 1000 to 2200 nM.
The corresponding values for `Cc1ncc2oc(-c3ccc(NC(=O)Cc4c(Cl)cc(C(F)(F)F)cc4Cl)cc3)nn12` [Example 67, 2-(2,6-dichloro-4-(trifluoromethyl)phenyl)-N-(4-(5-methylimidazo [5,1-b][1,3,4]oxadiazol-2-yl)phenyl)acetamide] are “c (c: 50 fold > selectivity ≥ 10 fold)” and 1000 to 2200 nM.
For the molecule `Cc1ncc2oc(-c3ccc(NC(=O)Cc4cccc(C#N)c4)cc3)nn12` [Example 64, 2-(3-cyanophenyl)-N-(4-(5-methylimidazo[5,1-b][1,3,4]oxadiazol-2-yl)phenyl)acetamide], the Abtot/Ab42 selectivity ranges result in assay [1] is reported as “b (b: 100 fold > selectivity ≥ 50 fold)”. Besides, the IC50 in assay [2] lay within 500 to 1000 nM.
The corresponding values for `Cc1ncc2oc(-c3ccc(C(=O)NCc4cccc(Cl)c4Cl)cc3)nn12` [Example 87, N-(2,3-dichlorobenzyl)-4-(5-methylimidazo[5,1-b][1,3,4]oxadiazol-2-yl)benzamide] are “c (c: 50 fold > selectivity ≥ 10 fold)” and 1000 to 2200 nM.
With `Cc1ncc2oc(-c3ccc(NC(=O)Cc4csc5ccc(Cl)cc45)cc3)nn12` [Example 73, 2-(5-chlorobenzo[b]thiophen-3-yl)-N-(4-(5-methylimidazo[5,1-b] [1,3,4]oxadiazol-2-yl)phenyl)acetamide], the Abtot/Ab42 selectivity ranges result in assay [1] is given as “c (c: 50 fold > selectivity ≥ 10 fold)”. In addition, the IC50 in assay [2] fell in the range of 1000 to 2200 nM.
For `Cc1ncc2oc(-c3ccc(Nc4nc5c(s4)CCCC5c4ccccc4)cc3)nn12` (stereo not drawn) [Example 26, [4-(5-Methyl-imidazo[5,1-b][1,2,4]oxadiazol-2-yl)-phenyl]-(4-phenyl-4,5,6,7-tetrahydro-benzothiazol-2-yl)-amine], in that order: “c (c: 50 fold > selectivity ≥ 10 fold)” and 1000 to 2200 nM.
`CCc1ncc2oc(-c3ccc(C(=O)NCc4cccc5ccccc45)cc3)nn12` [Example 21]: the Abtot/Ab42 selectivity ranges entry in assay [1] is listed as “c (c: 50 fold > selectivity ≥ 10 fold)”. In addition, in assay [2], the IC50 lay in the range of 1000 to 2200 nM.
The corresponding values for `Cc1ncc2oc(-c3ccc(Nc4nccc(NCc5cccc(C(F)(F)F)c5)n4)cc3)nn12` [Example 76, N2-(4-(5-methylimidazo[5,1-b][1,3,4]oxadiazol-2-yl)phenyl)-N4-(3-(trifluoromethyl)benzyl) pyrimidine-2,4-diamine] are “d (d: 10 fold > selectivity)” and 1000 to 2200 nM.
Take `Cc1ncc2oc(-c3ccc(NC(=O)Cc4cccc(C(F)(F)F)c4)cn3)nn12` [Example 14, N-[6-(5-Methyl-imidazo[5,1-b][1,2,4]oxadiazol-2-yl)-pyridin-3-yl]-2-(3-trifluoromethyl-phenyl)-acetamide]: the Abtot/Ab42 selectivity ranges result in assay [1] was “c (c: 50 fold > selectivity ≥ 10 fold)”. The IC50 in assay [2] was in the range of 1000 to 2200 nM.
On to `Cc1ncc2sc(-c3nnc(NCc4ccc(Cl)c(Cl)c4)o3)nn12` [Example 102, (3,4-Dichloro-benzyl)-[5-(5-methyl-imidazo[5,1-b][1,3,4]thiadiazol-2-yl)-[1,3,4]oxadiazol-2-yl]-amine], for which the Abtot/Ab42 selectivity ranges entry in assay [1] was “d (d: 10 fold > selectivity)”. Moreover, the IC50 in assay [2] lay in the range of 100 to 500 nM.
The corresponding values for `Cc1ncc2sc(C(=O)NC(c3ccc(Cl)cc3)C3CC3)nn12` (stereo not drawn) [Example 91, 5-Methyl-imidazo[5,1-b][1,3,4]thiadiazole-2-carboxylic acid [(4-chloro-phenyl)-cyclopropyl-methyl]-amide] are “d (d: 10 fold > selectivity)” and 1000 to 2200 nM.
For the molecule `Cc1ncc2sc(C(=O)NCc3cccc4ccccc34)nn12` [Example 105, 5-methyl-N-(naphthalen-1-ylmethyl)imidazo[5,1-b][1,3,4]thiadiazole-2-carboxamide], the Abtot/Ab42 selectivity ranges result in assay [1] is given as “d (d: 10 fold > selectivity)”. In addition, the IC50 in assay [2] lay in the range of 500 to 1000 nM.
Take `Cc1ncc2oc(-c3ccc(NC(=O)Cc4c(F)cc(Cl)cc4F)cc3)nn12` [Example 7, 2-(4-Chloro-2,6-difluoro-phenyl)-N-[4-(5-methyl-imidazo[5,1-b][1,2,4]oxadiazol-2-yl)-phenyl]-acetamide]: in assay [1], the Abtot/Ab42 selectivity ranges result was “b (b: 100 fold > selectivity ≥ 50 fold)”. Further, in assay [2], the IC50 was in the range of 500 to 1000 nM.
As for `Cc1ncc2sc(C(=O)N(C)CCc3ccccc3)nn12` [Example 97, 5-Methyl-imidazo[5,1-b][1,3,4]thiadiazole-2-carboxylic acid methyl-phenethyl-amide], the Abtot/Ab42 selectivity ranges result in assay [1] is recorded as “d (d: 10 fold > selectivity)”. Moreover, in assay [2], the IC50 was in the range of 500 to 1000 nM.
Turning to `COc1cc(NC(=O)Cc2ccccc2)ccc1-c1nn2c(C)ncc2o1` [Example 36, N-(3-methoxy-4-(5-methylimidazo[5,1-b][1,3,4]oxadiazol-2-yl)phenyl)-2-phenylacetamide], in assay [1], the Abtot/Ab42 selectivity ranges result is “c (c: 50 fold > selectivity ≥ 10 fold)”. In addition, the IC50 in assay [2] was 1000 to 2200 nM.
For `Cc1ncc2oc(-c3ccc(NC(=O)Cc4cccc(Br)c4)cc3)nn12` [Example 9, 2-(3-Bromo-phenyl)-N-[4-(5-methyl-imidazo[5,1-b][1,2,4]oxadiazol-2-yl)-phenyl]-acetamide], in that order: “c (c: 50 fold > selectivity ≥ 10 fold)” and 500 to 1000 nM.
Take `Cc1ncc2sc(C(=O)N3CCCC(c4ccc(F)cc4)C3)nn12` (stereo not drawn) [Example 109, [3-(4-Fluoro-phenyl)-piperidin-1-yl]-(5-methyl-imidazo[5,1-b][1,3,4]thiadiazol-2-yl)-methanone]: the Abtot/Ab42 selectivity ranges entry in assay [1] is “d (d: 10 fold > selectivity)”. Besides, the IC50 in assay [2] was 1000 to 2200 nM.

As a reminder, the IC50 is the concentration at which inhibition is half-maximal.
